Measurements published in patent US20250100963A1, “SULFONATED AND PHOSPHORYLATED AROMATIC MOLECULES” (Xavier University of Louisiana, priority 2023, published 2025).

How the values were obtained:
Human FXIa = Human FXIa (Homo sapiens, UniProt P03951); test: Direct inhibition of FXIa, chromogenic substrate hydrolysis assay; type: biochemical; settings: Tris-HCl buffer
Procedure: Direct inhibitions of thrombin (FIIa), factor VIIa (FVIIa), factor IXa (FIXa), factor Xa (FXa), FXIa, factor XIIa (FXIIa), trypsin and chymotrypsin were evaluated using the corresponding chromogenic substrate hydrolysis assays as previously reported. Briefly, to each well of a 96-well microplate containing 85-185 μl of […] Tris buffer containing 100 mM NaCl, 2.5 mM CaCl2, 0.1% PEG 8000, and 0.05% tween 80 at 25 (thrombin) or 37° C. (FVIIa, FIXa, FXa, FXIa, FXIIa, chymotrypsin, and trypsin) were added 5 μl of enzyme (thrombin, FVIIa, FIXa, FXa, FXIa, FXIIa, chymotrypsin, and trypsin) and 5 μl of the inhibitor. Following an incubation period of 5 min, the appropriate chromogenic substrates (Spectrozyme TH, Spectrozyme FIXa, Spectrozyme FXa, S-2366, Spectrozyme FXIIa and S-2222) were added and the residual enzyme activity was measured from the initial rate of increase in absorbance at 405 nm. Relative residual enzyme activity as a function of the inhibitor concentration was fitted using Logistic Equation (1) to obtain the IC50 (potency), A Y % (efficacy) of enzyme inhibition, and HS (Hill slope). The concentrations of enzymes and substrates in microplate cells were: 6 nM and 50 μM for thrombin; 1.09 nM and 125 μM for FXa; 5 nM and 125 μM for FXIIa; 89 nM and 850 μM for FIXa; 8 nM and 1000 µM for FVIIa (along with 40 nM recombinant tissue factor); 72.5 ng/ml and 80 μM for bovine trypsin; and 500 ng/ml and 240 μM for bovine chymotrypsin.

CatG = molecular target: T1, CatG (Homo sapiens, UniProt P08311); test: Michaelis-Menten kinetics of chromogenic substrate (S-7388) hydrolysis by CatG; type: biochemical
T1 sequence (P08311 21-244): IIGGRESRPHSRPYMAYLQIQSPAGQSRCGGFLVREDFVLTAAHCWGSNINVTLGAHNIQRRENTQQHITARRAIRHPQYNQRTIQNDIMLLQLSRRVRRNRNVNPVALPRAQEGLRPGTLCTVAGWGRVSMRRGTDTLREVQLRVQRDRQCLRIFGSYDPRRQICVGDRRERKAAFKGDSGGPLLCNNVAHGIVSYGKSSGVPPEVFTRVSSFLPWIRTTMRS
Procedure: The initial rate of the hydrolysis of the chromogenic substrate by CatG was monitored from the linear increase in absorbance corresponding to less than 10% consumption of substrate at 37° C. in pH 7.4 20 mM Tris buffer containing 100 mM NaCl, 2.5 mM CaCl2, 0.1% PEG 8000 and 0.05% tween 80. The initial rate was measured at various substrate concentrations ([…]) at fixed enzyme concentration (30 nM), and fixed sulfonated compounds concentrations (0, 25, 50, 100, 200, 400, and 800 nM). The data were fitted by the Michaelis-Menten Equation (3) to determine the KM (substrate affinity) and VMAX (maximum reaction velocity).
To understand the mechanistic basis of inhibition, Michaelis-Menten kinetics of S-7388 hydrolysis by CatG was performed in the presence of inhibitor 2 at pH 7.4 and 37° C. […] Table 5 and FIG. 5.

Human FXIa, sequence (P03951 388-625): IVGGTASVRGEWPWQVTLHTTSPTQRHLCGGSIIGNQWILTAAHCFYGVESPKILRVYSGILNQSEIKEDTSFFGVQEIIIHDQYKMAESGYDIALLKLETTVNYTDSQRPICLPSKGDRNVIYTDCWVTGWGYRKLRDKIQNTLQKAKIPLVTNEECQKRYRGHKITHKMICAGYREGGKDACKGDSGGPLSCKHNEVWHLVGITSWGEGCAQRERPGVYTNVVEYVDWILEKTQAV
Human FXIa, sequence (P03951 19-387 partner): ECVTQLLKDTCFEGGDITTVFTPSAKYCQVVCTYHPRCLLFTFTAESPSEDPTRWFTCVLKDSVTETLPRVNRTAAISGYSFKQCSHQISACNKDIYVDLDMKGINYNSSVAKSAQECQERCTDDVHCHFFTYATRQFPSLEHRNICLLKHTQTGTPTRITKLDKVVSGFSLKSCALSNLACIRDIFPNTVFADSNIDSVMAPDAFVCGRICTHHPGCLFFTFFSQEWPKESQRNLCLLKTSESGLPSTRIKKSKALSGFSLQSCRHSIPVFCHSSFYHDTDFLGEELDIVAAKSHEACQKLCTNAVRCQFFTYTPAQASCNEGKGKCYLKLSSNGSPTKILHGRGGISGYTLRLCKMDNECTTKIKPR

IC50 (Human FXIa): > 500 µM
Decrease of VMAX, absence of inhibitor vs 800 nM (CatG; 0 vs 800 nM inhibitor): ~3 fold
Km (CatG; Formula II 40 nM): 1200 ± 300 µM
Vmax (CatG; Formula II 40 nM): 26.1 ± 2.5 mAU/min
Km (CatG; Formula II 100 nM): 1290 ± 190 µM
Vmax (CatG; Formula II 100 nM): 17.6 ± 1.1 mAU/min
Km (CatG; Formula II 400 nM): 1400 ± 220 µM
Vmax (CatG; Formula II 400 nM): 11.4 ± 0.8 mAU/min
Km (CatG; Formula II 800 nM): 1320 ± 207 µM
Vmax (CatG; Formula II 800 nM): 10.6 ± 0.95 mAU/min
Vmax (CatG; Formula II 800 nM, listed as inhibitor 2): 10.6±0.95 mAU/min
KM for S-7388 in the presence or absence of inhibitor (CatG; inhibitor 0-800 nM, pH 7.4, 37° C.): essentially unchanged
SMILES: O=C(Nc1cc(C(=O)Nc2ccc(S(=O)(=O)O)cc2S(=O)(=O)O)cc(C(=O)Nc2ccc(S(=O)(=O)O)cc2S(=O)(=O)O)c1)Nc1cc(C(=O)Nc2ccc(S(=O)(=O)O)cc2S(=O)(=O)O)cc(C(=O)Nc2ccc(S(=O)(=O)O)cc2S(=O)(=O)O)c1 [Formula II, 4,4′,4″,4′-((5,5′-(carbonylbis(azanediyl))bis(isophthaloyl))tetrakis(azanediyl))tetrakis(benzene-1,3-disulfonic acid)]
